The target of test [1] is vasopressin V2 receptor subtype (V2R) (Homo sapiens, UniProt P30518). The test is described as follows: 3H-AVP competition binding on V2R membranes. As to conditions: for Ki: Ki (nM ± SEM), binding affinity of the ligands for V2R, 3H-AVP competition, mean ± SEM; for V2R inhibition, 3H-AVP binding (FIG. 15): compared with U-Da2a.
Protocol: Reaction mixtures contained 50 mM Tris-HCl, pH 7.4, 10 mM MgCl2 and 1 g/L BSA in a final volume of 100 μL. Plates were incubated for 3 h at room temperature. Binding reactions were stopped by filtration through a GF/C filter pre-soaked in 0.5% polyethyleneimine on a cell harvester ([sequence], Courtaboeuf, France) and plates were dried. […] A one-site inhibition mass action curve was fitted to inhibition binding data using Kaleidagraph (SYNERGY SOFTWARE, Reading, Pa., USA).
Another test addresses V2R (Homo sapiens, UniProt P30518). The following applies: vaptans, background; cited from earlier work.

Bridges are numbered along the chain shown (N, C = ends). Where no end group is shown, it is not given here.

In the case of “RPKFCNLPVKPGPCNGFFSAFYYSQKTNKCHSFTYGGCKGNANRFSTIEKCRRTCVG (disulfide 5-55, 14-38, 30-51) [U-Da2a-S3K]”, in test [1], the Ki (in general, the equilibrium dissociation constant of an inhibitor or competing ligand from its target) was 1.29 ± 0.34 nM.

Turning to “DTx-E-R55 (LQHRTFCKLPAEPGPCKASIPAFYYNWAAKKCQLFHYGGCKGNANRFSTIEKCRRACVG; listed as Dendroaspis polylepis) [reference compound]”, the “V2R inhibition, 3H-AVP binding (FIG. 15)” value in test [1] is “not able to block V2R”.

As for `Cc1nc2c([nH]1)-c1ccccc1N(C(=O)c1ccc(NC(=O)c3ccccc3-c3ccccc3)cc1)CC2` [Conivaptan], on V2R, the V2/V1a selectivity index is listed as 0.15.

Take `CCOc1ccc2c(c1)C1(CCC(OCCN3CCOCC3)CC1)C(=O)N2S(=O)(=O)c1ccc(C(=O)NC(C)(C)C)cc1OC` (stereo not shown) [Satavaptan]: the V2/V1a selectivity index on V2R was 112.

Compound “SFCNLPVKPGPCNGFFSAFYYSQKTNKCHSFTYGGCKGNANRFSTIEKCRRTC (disulfide 3-53, 12-36, 28-49) [U-Da2a-delta2 N-ter/delta2 C-ter]” returned a Ki in test [1] of 3.23 ± 2.31 nM.

Take “Dendrotoxin-K [DTx-K, reference compound]”: the “V2R inhibition, 3H-AVP binding (FIG. 15)” value in test [1] is listed as “no V2R inhibition”.

“CNLPVKPGPCNGFFSAFYYSQKTNKCHSFTYGGCKGNANRFSTIEKCRRTCVG (disulfide 1-51, 10-34, 26-47) [U-Da2a-delta4 N-ter]” registered a Ki in test [1] of 1.57 ± 1.2 nM.

Source of the values: patent US9631001B2, “Peptide antagonists of the vasopressin-2 receptor” (COMMISSARIAT A L'ENERGIE ATOMIQUE ET AUX ENERGIES …, priority 2012, dated 2017).
